We go through 1 compound from PMC12348844, “Anti-Trypanosoma cruzi Potential of New Pyrazole-Imidazoline Derivatives” (Molecules, 2025).

A short description of series [1]: Cytotoxicity in 3D cardiac spheroids (CellTiter-Glo). It is filed as cell-based. As to conditions: Swiss Webster, mouse, 3D cardiac spheroids from fetal heart muscle cells, 15.6 to 500 µM. As to the method:
(§1) Three-dimensional (3D) heart muscle cell cultures were obtained as previously described. Briefly, heart muscle cells were isolated from 18-day-old Swiss Webster mouse fetuses. The ventricular tissue was fragmented and enzymatically dissociated using a trypsin and collagenase type II solution. The isolated cells were seeded at a density of 2.5 × 10^4 cells/well in 96-well U-bottom microplates previously coated with 1% agarose. The cells were cultured in Dulbecco’s modified Eagle Medium (DMEM) enriched with 10% FBS, 2.5 mM CaCl2, 1 mM L-glutamine, 2% chicken embryo extract, and a cocktail of antibiotics. The cultures were maintained at 37 °C in a 5% CO2 atmosphere. After a 7-day culture period, the resulting fully developed spheroids were used to assess drug-induced cardiotoxicity and evaluate their efficacy against T. cruzi. […]
The cytotoxicity of the promising candidate was assessed using 3D cardiac spheroids, seeded at 2.5 × 10^4 cells per well. The cultures were treated with a series of concentrations as previously described, and the cell viability was measured using luminescence following the addition of CellTiter-Glo reagent (Promega Corporation, Madison, WI, USA). […] The data shown represents the mean value accompanied by standard deviations, calculated from at least three independent experiments, each performed in duplicate.

In series [2] the test system is T. cruzi (Dm28c-Luc). In words: Reversibility (washout) assay in T. cruzi-infected Vero cells. It is filed as cell-based, Trypanosoma cruzi. As to conditions: for parasite load of cell monolayer at 21 dpi (luminescence): untreated 5 × 10^5 A.L.U. As to the method: After treatment, the cultures were thoroughly washed, and parasite recrudescence was evaluated over an extended period of 10 days in RPMI medium supplemented with 10% fetal bovine serum (FBS). Culture supernatants were collected at intervals, and the luminescence signal indicative of trypomastigote release was assessed using a Glomax Multi-Detection plate reader (Promega Corporation, Madison, WI, USA) following the addition of luciferin every 2–3 days. At the experiment’s conclusion, the infection profile of the monolayer was also examined. Cells were fixed with PFA for 20 min at 4 °C, then stained with DAPI for microscopy analysis. Luminescence data were expressed in arbitrary luminescent units (A.L.U), and fluorescence images were acquired using the ImageXpress Micro XLS high-content screening (HCS) system (Molecular Devices, Sunnyvale, CA, USA).

Series [3] deals with T. cruzi Dm28c-Luc in cardiac spheroids. Briefly: Efficacy in T. cruzi-infected 3D cardiac microtissues. It is filed as cell-based. The conditions noted are these: Trypanosoma cruzi, 72 h, read-out: inhibition of parasite load in infected cardiac spheroids. On the procedure:
as §1, with “atmosphere.” for “atmosphere. After a 7-day culture period, the resulting fully developed spheroids were used to assess drug-induced cardiotoxicity and evaluate their efficacy against T. cruzi.”
The efficacy of the promising candidate was assessed using cardiac 3D microtissues. […] At the end of the experiment, luminescence was measured using a Glomax Multi-Detection plate reader (Promega Corporation, Madison, WI, USA) after adding luciferin solution, with results reported in arbitrary luminescence units (A.L.U). To enhance reliability and provide qualitative, orthogonal validation of these luminescence readings, we employed confocal fluorescence microscopy using 4′,6′-diamidino-2-phenylindole (DAPI) staining. […] Imaging was performed using a Zeiss LSM710 confocal fluorescence microscope (Carl Zeiss, Baden–Württemberg, Germany). […]

In turn, `FC(F)(F)c1ccc(-n2cc(C3=NCCN3)cn2)cc1` [1k, 1-(4-trifluoromethylphenyl)-4-(4,5-dihydro-1H-imidazol-2-yl)-1H-pyrazole] showed a CC50 at 72 h in series [1] of 173 ± 6.8 µM. Further, the figures for the “parasite load of cell monolayer at 21 dpi (luminescence)” value in series [2] (28.8 µM) and in series [2] (57.6 µM) were 4 × 10^4 A.L.U and 1.1 × 10^4 A.L.U, respectively. In addition, the “sterility of cultures in reversibility assay” value in series [2] (10 days treatment, tested conditions) was “failed to achieve sterility”. In addition, the inhibition at 28.8 µM in series [2] (Trypanosoma cruzi, Vero, 240 h, 28.8 µM (IC90), 10 days treatment + 10 days washout, read-out: inhibition of parasite load of cell monolayer at 21 dpi) came to 92%; in series [3] (28.8 µM), 90%. In addition, the inhibition at 57.6 µM in series [3] (57.6 µM) came out at 94%.
